According to patent US10538487B2, “Sulfonylureas and related compounds and use of same” (priority 2015, dated 2020):
Read-outs that look alike come from different tables or passages of the source.

Experiment: Single dose pharmacokinetic study in mice (iv 4 mg/Kg, po 20 mg/Kg), plasma concentration post-dosing
Assay type: in vivo, mouse
Details: male, C57BL/6, mouse, plasma, mouse; for concentration at 5 min: 5 min post dosing; for concentration at 0.25 h: 0.250 h post dosing; for concentration at 0.5 h: 0.500 h post dosing; for concentration at 1 h: 1.00 h post dosing; for concentration at 2 h: 2.00 h post dosing; for concentration at 4 h: 4.00 h post dosing; for concentration at 8 h: 8.00 h post dosing; for concentration at 24 h: 24.0 h post dosing
Method: This is advantageous leading to comparatively lower doses or less frequent administration. The procedure followed was: Male C57BL/6 mice were used at 7-9 weeks age with 3 animals per group. Mice were dosed with test compound using single intravenous bolus or oral gavage. Blood samples were taken via submandibular or saphenous vein for analysis of plasma concentrations of compound by LC-MS/MS at the following timepoints: IV (3 mice): 0.083, 0.25, 0.5, 1, 2, 4, 8 and 24 hours post dosing, PO (3 mice): 0.25, 0.5, 1, 2, 4, 8 and 24 hours post dosing. LC-MS/MS method for the quantitative determination of test compound in corresponding biological matrix was developed. […] The results are shown graphically in FIGS. 1A to 1C (MCC950) and FIGS. 2A to 2C (MCC7840).

## CC(C)n1ccc(S(=O)(=O)NC(=O)Nc2c3c(cc4c2CCC4)CCC3)n1 [MCC_007840_002]
iv, 4 mg/kg, IV 4 mg/Kg, individual mice M1-M3, read-out: Plasma concentration, IV Time 0.0833 h
  concentration at 5 min: 47800 ng/mL
iv, 4 mg/kg, IV 4 mg/Kg, mean of 3 mice, read-out: Plasma concentration, IV Time 0.0833 h, Mean IV
  concentration at 5 min: 42800 ng/mL
iv, 4 mg/kg, IV 4 mg/Kg, individual mice M1-M3, read-out: Plasma concentration, IV Time 0.250 h
  concentration at 0.25 h: 28100 ng/mL
iv, 4 mg/kg, IV 4 mg/Kg, mean of 3 mice, read-out: Plasma concentration, IV Time 0.250 h, Mean IV
  concentration at 0.25 h: 28900 ng/mL
iv, 4 mg/kg, IV 4 mg/Kg, individual mice M1-M3, read-out: Plasma concentration, IV Time 0.500 h
  concentration at 0.5 h: 25200 ng/mL
iv, 4 mg/kg, IV 4 mg/Kg, mean of 3 mice, read-out: Plasma concentration, IV Time 0.500 h, Mean IV
  concentration at 0.5 h: 25000 ng/mL
iv, 4 mg/kg, IV 4 mg/Kg, individual mice M1-M3, read-out: Plasma concentration, IV Time 1.00 h
  concentration at 1 h: 19900 ng/mL
iv, 4 mg/kg, IV 4 mg/Kg, mean of 3 mice, read-out: Plasma concentration, IV Time 1.00 h, Mean IV
  concentration at 1 h: 18700 ng/mL
iv, 4 mg/kg, IV 4 mg/Kg, individual mice M1-M3, read-out: Plasma concentration, IV Time 2.00 h
  concentration at 2 h: 13300 ng/mL
iv, 4 mg/kg, IV 4 mg/Kg, mean of 3 mice, read-out: Plasma concentration, IV Time 2.00 h, Mean IV
  concentration at 2 h: 16000 ng/mL
iv, 4 mg/kg, IV 4 mg/Kg, individual mice M1-M3, read-out: Plasma concentration, IV Time 4.00 h
  concentration at 4 h: 6520 ng/mL
iv, 4 mg/kg, IV 4 mg/Kg, mean of 3 mice, read-out: Plasma concentration, IV Time 4.00 h, Mean IV
  concentration at 4 h: 7890 ng/mL
iv, 4 mg/kg, IV 4 mg/Kg, individual mice M1-M3, read-out: Plasma concentration, IV Time 8.00 h
  concentration at 8 h: 3490 ng/mL
iv, 4 mg/kg, IV 4 mg/Kg, mean of 3 mice, read-out: Plasma concentration, IV Time 8.00 h, Mean IV
  concentration at 8 h: 3760 ng/mL
iv, 4 mg/kg, IV 4 mg/Kg, individual mice M1-M3, read-out: Plasma concentration, IV Time 24.0 h
  concentration at 24 h: 149 ng/mL
iv, 4 mg/kg, IV 4 mg/Kg, mean of 3 mice, read-out: Plasma concentration, IV Time 24.0 h, Mean IV
  concentration at 24 h: 134 ng/mL
iv, 4 mg/kg, IV 4 mg/Kg, individual mice M1-M3, read-out: AUC0-inf
  AUC0-inf: 101 µg·h/mL
iv, 4 mg/kg, IV 4 mg/Kg, individual mice M1-M3, read-out: AUC0-last
  AUC(0-t): 100 µg·h/mL
iv, 4 mg/kg, IV 4 mg/Kg, individual mice M1-M3, read-out: C0
  C0: 62300 ng/mL
iv, 4 mg/kg, IV 4 mg/Kg, individual mice M1-M3, read-out: Cl
  clearance: 0.659 mL/min/kg
iv, 4 mg/kg, IV 4 mg/Kg, individual mice M1-M3, read-out: MRT0-inf
  MRT inf: 4.3 h
iv, 4 mg/kg, IV 4 mg/Kg, individual mice M1-M3, read-out: MRT0-last
  MRT last: 4.11 h
iv, 4 mg/kg, IV 4 mg/Kg, individual mice M1-M3, read-out: T1/2 (converted)
  half-life: 3.62 h
iv, 4 mg/kg, IV 4 mg/Kg, individual mice M1-M3, read-out: Vdss
  Vd: 0.17 L/kg
iv, 4 mg/kg, IV 4 mg/Kg, mean of 3 mice, read-out: AUC0-inf, Mean IV
  AUC0-inf: 108 µg·h/mL
iv, 4 mg/kg, IV 4 mg/Kg, mean of 3 mice, read-out: AUC0-last, Mean IV
  AUC(0-t): 107 µg·h/mL
iv, 4 mg/kg, IV 4 mg/Kg, mean of 3 mice, read-out: Cl, Mean IV
  clearance: 0.621 mL/min/kg
iv, 4 mg/kg, IV 4 mg/Kg, mean of 3 mice, read-out: MRT0-inf, Mean IV
  MRT inf: 4.29 h
iv, 4 mg/kg, IV 4 mg/Kg, mean of 3 mice, read-out: MRT0-last, Mean IV
  MRT last: 4.13 h
iv, 4 mg/kg, IV 4 mg/Kg, mean of 3 mice, read-out: T1/2, Mean IV (converted)
  half-life: 3.39 h
iv, 4 mg/kg, IV 4 mg/Kg, mean of 3 mice, read-out: Vdss, Mean IV
  Vd: 0.16 L/kg
po, 20 mg/kg, PO 20 mg/Kg, mean of 3 mice, read-out: Plasma concentration, PO Time 0.250 h, Mean PO
  concentration at 0.25 h: 60500 ng/mL
po, 20 mg/kg, PO 20 mg/Kg, mean of 3 mice, read-out: Plasma concentration, PO Time 0.500 h, Mean PO
  concentration at 0.5 h: 50300 ng/mL
po, 20 mg/kg, PO 20 mg/Kg, mean of 3 mice, read-out: Plasma concentration, PO Time 1.00 h, Mean PO
  concentration at 1 h: 42300 ng/mL
po, 20 mg/kg, PO 20 mg/Kg, mean of 3 mice, read-out: Plasma concentration, PO Time 2.00 h, Mean PO
  concentration at 2 h: 42600 ng/mL
po, 20 mg/kg, PO 20 mg/Kg, mean of 3 mice, read-out: Plasma concentration, PO Time 4.00 h, Mean PO
  concentration at 4 h: 26600 ng/mL
po, 20 mg/kg, PO 20 mg/Kg, mean of 3 mice, read-out: Plasma concentration, PO Time 8.00 h, Mean PO
  concentration at 8 h: 18900 ng/mL
po, 20 mg/kg, PO 20 mg/Kg, mean of 3 mice, read-out: Plasma concentration, PO Time 24.0 h, Mean PO
  concentration at 24 h: 1470 ng/mL
po, 20 mg/kg, PO 20 mg/Kg, individual mice M4-M6, read-out: AUC0-inf
  AUC0-inf: 368 µg·h/mL
po, 20 mg/kg, PO 20 mg/Kg, individual mice M4-M6, read-out: MRT0-last
  MRT last: 4.8 h
po, 20 mg/kg, PO 20 mg/Kg, individual mice M4-M6, read-out: Tmax
  Tmax: 0.25 h
po, 20 mg/kg, PO 20 mg/Kg, mean of 3 mice, read-out: AUC0-inf, Mean PO
  AUC0-inf: 362 µg·h/mL
po, 20 mg/kg, PO 20 mg/Kg, mean of 3 mice, read-out: AUC0-last, Mean PO
  AUC(0-t): 350 µg·h/mL
po, 20 mg/kg, PO 20 mg/Kg, mean of 3 mice, read-out: Cmax, Mean PO
  Cmax: 60500 ng/mL
po, 20 mg/kg, PO 20 mg/Kg, mean of 3 mice, read-out: MRT0-inf, Mean PO
  MRT inf: 7.52 h
